Drawing on ChEMBL document CHEMBL3507680, “University of Dundee, Gates Library screen for HepG2 cell viability”, this text covers cytotoxicity for 39 compounds.

Structures are written as SMILES.

This data set in a line: Human HepG2 cell viability assay in 384 well format. It counts as toxicity, cell-based. Also on record: dose 125 nL, time 70.5 hour; cytotoxicity at 70.5 h: concentration not given beside the values. As to conditions: HepG2 cells, read-out: Inhibition.
For the compound `OC[C@@H]1[C@@H](c2ccccc2)CN2CCN(c3ccccn3)C[C@H]12`, the cytotoxicity at 70.5 h was -3.64%.

Turning to `OC[C@@H]1[C@H]2CN(c3ccccn3)CCN2C[C@H]1c1ccccc1`, the cytotoxicity at 70.5 h was -1.78%.

For the compound `O=S1(=O)N(c2ccccc2)C[C@H](O)[C@]12CCNC2`, the cytotoxicity at 70.5 h was -2.92%.

For `CN1CC[C@H](N(Cc2ccccc2)CC2CC2)C[C@H](O)C1`, the cytotoxicity at 70.5 h was 9.84%.

For `CN1C[C@H](O)[C@]2(CCN(C(=O)NCc3ccccc3)C2)S1(=O)=O`, the cytotoxicity at 70.5 h is -8.64%.

Consider `O=S1(=O)[C@@H](c2ccccc2)[C@H](CO)CN1c1ccccc1`, for which the cytotoxicity at 70.5 h was -4.62%.

Regarding `CC(C)N1C[C@@H](CO)[C@H](c2ccccc2)S1(=O)=O`, the cytotoxicity at 70.5 h was -3.46%.

In the case of `CCCC(O)CN1CCC(=O)N(CC2CC2)Cc2cc3c(cc21)OCO3` (centres undefined), the cytotoxicity at 70.5 h was 25%.

Turning to `CN1Cc2cc(F)ccc2N(CC(C)(C)O)CCC1=O`, the cytotoxicity at 70.5 h stood at 8.74%.

With `O=C(Cc1ccccc1)N1CC(=O)N(Cc2ccco2)CC(O)C1` (centres undefined), the cytotoxicity at 70.5 h was 0.111%.

Consider `Cc1ccc(C(=O)N2CC(=O)N(Cc3ccco3)CC(O)C2)cc1` (centres undefined), for which the cytotoxicity at 70.5 h is -2.64%.

With `CC(C)CN1CC(O)CN(S(=O)(=O)c2ccc(F)cc2)CC1=O` (centres undefined), the cytotoxicity at 70.5 h was -9.29%.

On to `CC(C)(C)C(=O)N1CC(=O)N(Cc2ccco2)CC(O)C1` (centres undefined), for which the cytotoxicity at 70.5 h is -4.89%.

Regarding `CC(C)CC(=O)N1CC(=O)N(Cc2ccco2)CC(O)C1` (centres undefined), the cytotoxicity at 70.5 h amounted to 8.54%.

Turning to `CCCC1CN(CCOC)C(=O)c2cccnc2O1` (centres undefined), the cytotoxicity at 70.5 h was -8.12%.

For the compound `CCOC(=O)N1[C@@H](c2ccco2)[C@@H](C(=O)NC)C[C@]12CCCCNC2=O`, the cytotoxicity at 70.5 h turned out to be 15.2%.

Turning to `CCc1c(C(=O)N2CCN(c3cnccn3)CC2)cnn1C(C)(C)C`, the cytotoxicity at 70.5 h came to 20.7%.

Regarding `CC(C(=O)NCCCN1CCOCC1)n1cncn1` (centres undefined), the cytotoxicity at 70.5 h was determined as 6.37%.

For `Cc1cnn(C2CN(CC(=O)NCCCc3ccccc3)C2)c1`, the cytotoxicity at 70.5 h turned out to be 24.2%.

`Cc1nc(CN(C)C2CCCN(Cc3noc(C4CC4)n3)C2)oc1C` (centres undefined): the cytotoxicity at 70.5 h was 14.4%.

On to `Cc1cc(CN(C)C2CCCN(Cc3noc(C4CC4)n3)C2)on1` (centres undefined), for which the cytotoxicity at 70.5 h is -9.71%.

With `CC(C(=O)NCCN1CCCCC1)n1cncn1` (centres undefined), the cytotoxicity at 70.5 h is -12.5%.

Take `Cn1cnc2c1CCN(Cc1csc(Cc3ccccc3)n1)C2`: the cytotoxicity at 70.5 h was -9.86%.

As to `CC(C)c1cc(NC(=O)CN2CCCC2Cn2cncn2)on1` (centres undefined), the cytotoxicity at 70.5 h is -9.97%.

Take `CCc1ncncc1C(=O)N1CCCN(Cc2ccc(C#N)cc2)CC1`: the cytotoxicity at 70.5 h was -10.9%.

Turning to `Cc1noc(CN(C)C2CCCN(Cc3noc(C4CC4)n3)C2)n1` (centres undefined), the cytotoxicity at 70.5 h was -10.7%.

Regarding `O=C(Cc1cccc(F)c1)NCCNc1ncccn1`, the cytotoxicity at 70.5 h is -4.32%.

In the case of `CNS(=O)(=O)c1ccc(C)c(C(=O)NCCNc2ncccn2)c1`, the cytotoxicity at 70.5 h is -14.9%.

In the case of `CC(C(=O)NCCCN1CCN(c2ccccc2)CC1)n1cncn1` (centres undefined), the cytotoxicity at 70.5 h was -15.9%.

On to `CN(Cc1cccc(F)c1)Cc1nc2c(cnn2C)c(=O)[nH]1`, for which the cytotoxicity at 70.5 h came to 5.31%.

`CCC(C)NC(=O)CCc1ccc(OCC(F)(F)F)c(OC)c1` (centres undefined): the cytotoxicity at 70.5 h is -14.7%.

As to `COc1cc(CCC(=O)NC2CCN(C)CC2)ccc1OCC(F)(F)F`, the cytotoxicity at 70.5 h was -7.75%.

`CCC(C)(C)NC(=O)CN1C=Nc2ccccc2S1(=O)=O`: the cytotoxicity at 70.5 h was -5.89%.

In the case of `CC(C)CCC(C)NC(=O)CN1C=Nc2ccccc2S1(=O)=O` (centres undefined), the cytotoxicity at 70.5 h was -8.83%.

In the case of `COc1cc(CCC(=O)NC(C)(C)C)ccc1OCC(F)(F)F`, the cytotoxicity at 70.5 h is -9.72%.

Regarding `CC(C(=O)NCCN1CCOCC1)n1cncn1` (centres undefined), the cytotoxicity at 70.5 h is -11.7%.

As to `Cc1cc(NC(=O)CN2CCCCC2Cn2nc(C)nc2C)on1` (centres undefined), the cytotoxicity at 70.5 h was -8.71%.

Turning to `Cc1cnn(C2CN(CC(=O)NCCc3cccs3)C2)c1`, the cytotoxicity at 70.5 h was -12.3%.

Regarding `Cn1c(C2CC2)nc2c1CCN(Cc1nc(Cc3ccccc3)no1)C2`, the cytotoxicity at 70.5 h is -12.9%.
